# Source: patent publication US11555055B2, “Peptide inhibitors of insulin-degrading enzyme” (The Regents of the University of California, priority 2017, dated 2023)
# Where a SMILES comes first, the peptide text is derived from it. Bridges are numbered along the chain shown (N, C = ends).
# Legend:
# IDE = molecular target: T1, IDE (Homo sapiens, UniProt P14735); assay: Vulnerability of peptides to degradation by IDE: potency after 0 or 4 h pre-incubation with IDE, FRET1 assay; assay type: biochemical; settings: 4-h incubation with IDE
# T1 construct: made in house; host or cells: bacteria
# T1 sequence (P14735 1-1019): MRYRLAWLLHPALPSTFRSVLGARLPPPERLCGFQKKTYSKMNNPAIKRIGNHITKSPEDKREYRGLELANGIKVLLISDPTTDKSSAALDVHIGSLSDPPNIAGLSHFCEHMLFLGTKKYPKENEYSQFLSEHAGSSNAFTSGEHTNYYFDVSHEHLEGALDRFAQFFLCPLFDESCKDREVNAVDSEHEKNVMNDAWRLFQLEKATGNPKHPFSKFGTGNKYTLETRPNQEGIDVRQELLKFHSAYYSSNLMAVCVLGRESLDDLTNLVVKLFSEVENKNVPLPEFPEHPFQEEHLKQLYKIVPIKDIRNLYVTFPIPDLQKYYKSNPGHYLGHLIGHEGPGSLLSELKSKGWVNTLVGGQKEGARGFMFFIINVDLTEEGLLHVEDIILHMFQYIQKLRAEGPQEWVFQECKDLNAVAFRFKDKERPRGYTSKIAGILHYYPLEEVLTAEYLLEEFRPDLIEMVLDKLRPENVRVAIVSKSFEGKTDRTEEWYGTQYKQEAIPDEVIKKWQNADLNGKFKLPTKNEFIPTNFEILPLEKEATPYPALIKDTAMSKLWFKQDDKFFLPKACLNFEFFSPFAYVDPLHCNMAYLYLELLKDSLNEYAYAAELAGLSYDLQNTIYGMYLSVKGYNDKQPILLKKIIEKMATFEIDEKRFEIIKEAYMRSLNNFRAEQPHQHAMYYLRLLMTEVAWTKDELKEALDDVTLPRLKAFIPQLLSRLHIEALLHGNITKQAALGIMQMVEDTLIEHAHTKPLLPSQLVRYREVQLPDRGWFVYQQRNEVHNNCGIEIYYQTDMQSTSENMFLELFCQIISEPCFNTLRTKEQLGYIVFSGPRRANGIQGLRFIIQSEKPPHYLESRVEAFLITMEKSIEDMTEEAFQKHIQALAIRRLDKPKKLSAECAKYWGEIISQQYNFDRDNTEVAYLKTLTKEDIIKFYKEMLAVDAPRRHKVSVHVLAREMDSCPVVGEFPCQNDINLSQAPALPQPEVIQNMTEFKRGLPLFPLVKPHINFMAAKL
# From the text: FIG. 2. Vulnerability of peptides to degradation by IDE assessed by activity assays.
# Because IDE is a peptidase, it was critical to determine whether the peptides were degraded by IDE over time. […] Because this peptide is capable of forming a disulfide bond between its two cysteines, but was not deliberately cyclized prior to testing, we suspect that the peptide (and related variants) may have cyclized over time, contributing to its stability. […]
# Degradation Assays—IDE activity was quantified by monitoring the degradation of (7-methoxycoumarin-4-yl)acetic acid-[…](2,4-dinitrophenyl) (FRET1, 5 μM) (49,55), fluoresceinated and biotinylated amyloid β-protein (FAβB; 500 nM) or recombinant human insulin (50 nM) in PBS supplemented with 0.05% BSA. FRET1 degradation was measured by changes in fluorescence (λex=340 nm, λem=420 nm); FAβB degradation was monitored by fluorescence polarization (λex=488 nm, λem=525 nm), as described (56); and insulin degradation was quantified by ELISA. […] For quantitation of insulin degradation in primary murine skin fibroblasts, cells (1×10^5/well) were plated in 96-well plates and maintained in DMEM supplemented with 10% fetal bovine serum (FBS), 2 mM glutamine, penicillin and streptomycin. […]
# [1] = tested on: primary murine skin fibroblasts; assay: Insulin degradation in cultured skin fibroblasts, insulin in medium by ELISA; assay type: cell-based, mouse; settings: 100 μM P12-3A, 10 nM insulin, up to day 4, logarithmically growing cells
# Description: FIG. 4A-F. Effects of P12-3A on cultured skin cells. A, Insulin concentrations as a function of time in logarithmically growing primary murine skin fibroblasts in the absence or presence of P12-3A (100 μM). […] Data are mean±SEM of 4 independent replications. *P<0.05, **P<0.01. B, Proliferation of cells in the absence or presence of P12-3A (100 μM). […] C,D,E, P12-3A (100 μM) potentiates insulin-induced collagen production in skin fibroblasts. Collagen production was assessed by COL1A1 mRNA levels (C), levels of hydroxyproline secreted into the medium (D), and cell-associated mature alpha-1 type I collagen levels detected by Western blotting (E). […] Migration of HaCaT cells 48 h after induction of a scratch wound in the presence of the indicated quantities of insulin and/or P12-3A (100 μM). […]
# Insulin promotes wound healing and overall skin health by affecting a number of processes, including cell proliferation (2,3), cell migration (5,6), and the production and secretion of ECM components, particularly type I collagen (7-13). We therefore assessed the ability of P12-3A to influence these processes in cultured skin fibroblasts and keratinocytes. To that end, primary mouse skin fibroblasts were grown for 4 d in multiple concentrations of insulin in the presence or absence of P12-3A, and insulin concentration over time was monitored by ELISA. […]
smiles,measurement,setting,value
CC(C)C[C@H](NC(=O)[C@H](CO)NC(=O)[C@@H](N)CCC(N)=O)C(=O)N1CCC[C@H]1C(=O)N[C@@H](Cc1c[nH]c2ccccc12)C(=O)N[C@H]1CSSC[C@@H](C(=O)N[C@H](C(=O)N[C@H](C(N)=O)[C@@H](C)O)C(C)C)NC(=O)[C@H](Cc2c[nH]cn2)NC(=O)[C@@H]2CCCN2C(=O)[C@H](Cc2ccc(O)cc2)NC1=O [Peptide P12-3A] (H-QSLPWCYPHCVT-NH2; disulfide 6-10 (inferred)),increase in potency at the 4-h time point relative to t=0,IDE,1 fold
same,insulin levels over time in cell culture,[1],remain constant
